Earlier results, collected in patent US9809617B2, “Crystal form of regadenoson and preparation method thereof” (Shanghai Ziyuan Pharmaceutical Co., Ltd., priority 2015, dated 2017).

Details: heat / humidity, as described for U.S. Pat. No. 7,732,595

Row | SMILES | stability of crystal form (in words)
1 | CCNC(=O)c1cnn(-c2nc(N)c3ncn(C4O[C@H](CO)[C@@H](O)[C@H]4O)c3n2)c1 (stereo partly drawn) [Crystal form A] | stable under heating under relative humidity stress conditions up to its melting point
2 | CCNC(=O)c1cnn(-c2nc(N)c3ncn(C4O[C@H](CO)[C@@H](O)[C@H]4O)c3n2)c1 (stereo partly drawn) [crystal form C] | unstable after losing crystal water under a high temperature
3 | CCNC(=O)c1cnn(-c2nc(N)c3ncn(C4O[C@H](CO)[C@@H](O)[C@H]4O)c3n2)c1 (stereo partly drawn) [amorphous form of regadenoson] | unstable in atmospheric moisture
